Results: US5759836A, “Osteoarthritis-associated inducable isoform of nitric oxide synthetase” (priority 1995, dated 1998)
“And” between values parts separate entries of the source, which are not always exact repeats. Equal entries are not always repeated.

Key:
iNOS [1] = assay: In vitro iNOS catalytic activity in cell-free extracts preincubated with drug (L-[3H]-arginine to L-[3H]-citrulline); type: biochemical, murine; conditions: 20 min preincubation
iNOS [2] = assay: Radiolabelling of iNOS by acetyl-labelled aspirin in RAW 264.7 cells, SDS-PAGE; type: biochemical, murine; conditions: radiolabelled aspirin, 30 minutes
Protocol: Unstimulated and LPS stimulated murine macrophage (RAW 264.7) cells were incubated with radiolabelled aspirin (acetyl group labelled) as described by Lecomte et al. (J. Biol. Chem. 269:13207-13215, 1994). After 30 minutes, the extracts were run on an SDS-PAGE gel and analyzed by phosphoimager. […] The intensity of label (^14 C) is increased, where iNOS synthesis was induced by LPS.
However, the possibility that inhibition of iNOS catalytic activity may be due to acetylation of cofactors/precursors of iNOS has not been ruled out.

CC(=O)Oc1ccccc1C(=O)O [Aspirin, aspirin]
inhibition of iNOS catalytic activity in cell-free extracts (iNOS [1]; 0.1 mM): 10-12% | inhibition of iNOS catalytic activity in cell-free extracts (specific activity in in vitro assay) (iNOS [1]; 1 mM): ~ 45% and 45-68% | acetylation of iNOS (iNOS [2]): shows acetylation of iNOS
